This is an account of results in US20120270935A1, “FORMULATIONS” (priority 2009, published 2012).

Converted amounts (≈) assume the structure as drawn. Like-named read-outs stand apart in the source and are kept apart here.

The subject of assay [1] is S. aureus ATCC 29213. Briefly: MBC assay. The assay is classed as cell-based, Staphylococcus aureus. Particulars: Mueller-Hinton broth pH 7.0. From the text: (§1) (a) staphylococci. The Staphylococcus aureus strain used was ATCC 29213. S. aureus and other staphylococci are common causes of a wide range of skin, skin structure and wound infections; S. aureus is also known to exacerbate eczema. The ATCC 29213 strain is known to be susceptible to beta-lactam antibiotics such as methicillin. The Staphylococcus epidermidis strain used was NCTC 11047. Staph. epidermidis forms part of the resident flora of skin and is an opportunistic pathogen which can cause biofilms to grow for instance on plastic surgical implants such as catheters. Unless otherwise stated, the staphylococci were cultured and maintained on Mueller-Hinton Medium (agar and broth) at pH 7.2; cultures were incubated aerobically at 37° C. for 19-20 hours, at pH 7 (±0.2). (b) C. striatum NCTC 764. Corynebacterium striatum is closely related to organisms (aerobic diphtheroids of the genus Corynebacterium) that cause body odour. It was cultured and maintained on Mueller-Hinton medium (agar and broth). All cultures were incubated aerobically at 37° C. for 72 hours, at pH 7 (±0.2). (c) streptococci. The strains tested were S. mutans ATCC 25175 and S. pyogenes ATCC 12344. S. mutans is a Gram-positive, microaerophilic bacterium which plays a significant role in dental caries and in infective endocarditis. Streptococcus pyogenes is associated with skin, soft tissue, burn and wound infections. S. mutans was cultured and maintained on Wilkins-Chalgren Anaerobe medium+1 g/L glucose (agar and broth); it was incubated in air at 37° C. for 48 hours, at pH 7 (±0.2) with 5% carbon dioxide. S. pyogenes was cultured and maintained on Mueller-Hinton medium (broth and agar) and was incubated under the same conditions as S. mutans. […]
(§2) Example 8 was repeated (except for the supplemented DDA assays), using S. aureus ATCC 29213 as the test organism. […] In the DDA assays, 200 μg is of each compound was loaded onto each disc: the culture medium was Mueller-Hinton agar at pH 7.0, and results were recorded after overnight incubation at 37° C. in air. […]

For assay [2], the system named is P. acnes NCTC 737. In words: Minimum inhibitory concentration (MIC) assay, broth microtitre. The assay is classed as cell-based, Propionibacterium acnes. As to conditions: compound in DMSO, triplicate. How it is done: (§3) The first test micro-organism used was Propionibacterium acnes NCTC 737. This is a propionibacterial strain and is the type strain of the […]; it is fully susceptible to antibiotics.
(§4) The propionibacteria were cultured and maintained on Wilkins-Chalgren Anaerobe Medium (agar and broth) at pH 6.0; all cultures were incubated anaerobically at 37° C. for 72 hours.
This is a standard international method for quantitatively assessing the antimicrobial activity of a compound in a liquid medium. The method used a sterile 96-well microtitre plate, capable of holding about 200 μl of liquid per well. The wells contained liquid culture medium and ranges of decreasing concentrations of the relevant test compound in doubling dilutions (eg 1000, 500, 250, 125 . . . μg/ml, etc. down to 0.49 μg/ml). The culture medium was as described above.
The wells were inoculated with a liquid suspension of freshly grown micro-organism and incubated under the conditions described above. After incubation, the microtitre plate was examined visually (with the aid of a light box) for cloudiness in each well, which would indicate microbial growth. The MIC value was recorded as the lowest concentration of test compound required to inhibit microbial growth, ie the lowest concentration for which the liquid in the well remained clear.
The assays included both negative (culture medium with no micro-organisms) and positive (culture medium plus diluting solvent plus micro-organism) controls.
(§5) DDA assays, as described above, were carried out using as the test formulation the gel prepared in Example 2B above. Also tested was the Example 2B gel minus the Klucel™ thickener, which was also subjected to MIC and MBC assays. For the DDAs, which were performed in triplicate, 100 μl of the relevant formulation was loaded onto each disc, and zones of inhibition were recorded after 3 days' anaerobic incubation at 37° C. The MIC and MBC tests were performed in duplicate and the results recorded after 3 days and 7 days respectively, post-subculture onto drug-free medium. […]

Assay [3] concerns S. aureus ATCC 29213. In words: Disc diffusion assay (DDA). Particulars: 200 μg per disc, Mueller-Hinton agar pH 7.0, overnight at 37° C. in air. The assay is classed as cell-based, Staphylococcus aureus.
Text: as §1, with “infections.” for “infections. S. mutans was cultured and maintained on Wilkins-Chalgren Anaerobe medium+1 g/L glucose (agar and broth); it was incubated in air at 37° C. for 48 hours, at pH 7 (±0.2) with 5% carbon dioxide. S. pyogenes was cultured and maintained on Mueller-Hinton medium (broth and agar) and was incubated under the same conditions as S. mutans.”
A sterile paper disc was impregnated with a sample of the test compound in a suitable solvent and 30 minutes allowed for the solvents to evaporate (where possible). […] The diameter of this zone of “inhibition” was measured using a ProtoCOL™ automated zone sizer (Synbiosis, Cambridge, UK). […]
as §2

For assay [4], the system named is C. striatum NCTC 764. Briefly: MIC assay. The assay is classed as cell-based, Corynebacterium striatum. Particulars: triplicate.
Text: as §1, with “dioxide.” for “dioxide. S. pyogenes was cultured and maintained on Mueller-Hinton medium (broth and agar) and was incubated under the same conditions as S. mutans.”
This is a standard international method for quantitatively assessing the antimicrobial activity of a compound in a liquid medium. […]
The wells were inoculated with a liquid suspension of freshly grown micro-organism and incubated under the conditions described above. […] The MIC value was recorded as the lowest concentration of test compound required to inhibit microbial growth, ie the lowest concentration for which the liquid in the well remained clear. […]

In assay [5] the test system is P. acnes NCTC 737. In words: Disc diffusion assay (DDA). In kind it is cell-based, Propionibacterium acnes. As to conditions: 200 μg compound per disc, DMSO. On the procedure:
as §3, §4
This is an internationally recognised standard method for qualitatively assessing the antimicrobial activity of a compound.
A sterile paper disc was impregnated with a sample of the test compound in a suitable solvent and 30 minutes allowed for the solvents to evaporate (where possible). The disc was then placed on an agar plate onto which the test micro-organism had been inoculated. The plate was then incubated under the conditions described above, following which it was examined visually for signs of microbial growth. If the test compound had antimicrobial activity, a circular zone of no growth would be obtained around the disc. The diameter of this zone of “inhibition” was measured using a ProtoCOL™ automated zone sizer (Synbiosis, Cambridge, UK). In general, a greater diameter and/or area of the zone of inhibition indicates a greater antimicrobial activity in the relevant test compound, although other factors such as test compound mobility through the agar gel may also influence the result.
as §5

The term MBC denotes the lowest tested concentration that kills the bacteria rather than only halting them. As a reminder, the MIC is the lowest concentration that inhibits growth of the organism.

With `CC(=O)c1c([O-])c(C)c([O-])c2c1OC1=CC(=O)C(C(C)=O)C(=O)C12C.[Cu+2]` (stereo not shown) [Copper usnate, copper (II) usnate], the MBC in assay [1] is 62.5 µg/mL. Further, the MIC turned out to be 0.49 µg/mL in assay [2] and 3.9 µg/mL in assay [4]. Moreover, the DDA zone diameter in assay [3] was determined as 14.8 ± 0.3 mm. Also, the “DDA zone diameter, unsupplemented medium” value in assay [5] came out at 46.7 ± 0.4 mm.

On to `CC(=O)c1c(O)c(C)c(O)c2c1OC1=CC(=O)C(C(C)=O)C(=O)C12C` (stereo not shown) [Usnic acid, 2,6-diacetyl-7,9-dihydroxy-8,9b-dimethyl-1,3(2H,9bh)-dibenzofurandione], for which, in assay [1] (Staphylococcus aureus, ATCC29213, read-out: MBC), the MBC worked out at 250 µg/mL (≈ 726 µM). Also, the MIC in assay [2] (Cutibacterium acnes, NCTC737, read-out: MIC) was 0.49 µg/mL (≈ 1.42 µM); in assay [4] (Corynebacterium striatum, NCTC764, read-out: MIC), 7.8 µg/mL (≈ 22.7 µM). Further, the zone of inhibition at 200 µg/disc in assay [3] (Staphylococcus aureus, ATCC29213, read-out: DDA zone diameter) was 13.6 ± 0.3 mm; in assay [5] (Cutibacterium acnes, NCTC737, read-out: DDA zone diameter, unsupplemented medium), 23.9 mm.
